In US20040214856A1, “Cannabinoid receptor ligands and uses thereof” (Pfizer Inc, priority 2003, published 2004) one finds CB-1 binding activities data, which are given here for two molecules.

The test concerns CB-1 receptor. The test is described as follows: CB-1 receptor binding assay ([3H]SR141716A displacement). The following applies: inhibition of [3H]SR141716A binding; rat or human protocol not specified. As for the experimental part: The following assays were designed to detect compounds that inhibit the binding of [^3H] SR141716A (selective radiolabeled CB-1 ligand) and [^3H] 5-(1,1-dimethylheptyl)-2-[5-hydroxy-2-(3-hydroxypropyl)-cyclohexyl]-phenol; radiolabeled CB-1/CB-2 ligand) to their respective receptors.
PelFreeze brains (available from Pel Freeze Biologicals, Rogers, Arkansas) were cut up and placed in tissue preparation buffer (5 mM Tris HCl, pH=7.4 and 2 mM EDTA), polytroned at high speed and kept on ice for 15 minutes. The homogenate was then spun at 1,000×g for 5 minutes at 4° C. The supernatant was recovered and centrifuged at 100,000×G for 1 hour at 4° C. The pellet was then re-suspended in 25 ml of TME ([…], pH=7.4, 5 mM MgCl2, and 1 mM EDTA) per brain used. A protein assay was performed and 200 μl of tissue totaling 20 μg was added to the assay.
The test compounds were diluted in drug buffer (0.5% BSA, 10% DMSO and TME) and then 25 μl were added to a deep well polypropylene plate. [^3H] […] In the morning the filters were counted on a Wallac Betaplate™ counter (available from PerkinElmer Life Sciences™, Boston, Mass.). […]
The test compounds were diluted in drug buffer (0.5% BSA, 10% DMSO and TME) and then 25 μl were added to a deep well polypropylene plate. […] In the morning the filters were counted on a Wallac Betaplate™ counter (available from PerkinElmer Life Sciences™, Boston, Mass.).

The structures appear in SMILES notation.

With `CC(C)N1Cc2nn(-c3ccccc3Cl)c(-c3ccc(C#N)cc3)c2C1=O` [Example 1A-2, 2-(2-chloro-phenyl)-5-isopropyl-3-(4-cyano-phenyl)-5,6-dihydro-2H-pyrrolo[3,4-c]pyrazol-4-one], the CB-1 binding activities worked out at 4 nM. The result for `CC(C)N1Cc2nn(-c3ccccc3Cl)c(-c3ccc(Cl)cc3)c2C1=O` [Example 1A-3, 2-(2-chloro-phenyl)-5-isopropyl-3-(4-chloro-phenyl)-5,6-dihydro-2H-pyrrolo[3,4-c]pyrazol-4-one] reads 2 nM.
